Measurements from publication PMC8222176 (Acta biomaterialia, 2021).

How the values were obtained:
[1] = Hydrodynamic diameter of detergent self-assemblies by dynamic light scattering; assay type: physicochemical; conditions: 1.0 wt% detergent, water, room temperature, n = 4
MelBEc [2] = biological target: T1, MelBEc (Escherichia coli, UniProt P02921); experiment: MelB Trp→D2G FRET assay; assay type: biochemical, E. coli; conditions: MelBEc extracted with 1.0 wt% detergent
[3] = assay type: physicochemical; conditions: in water at room temperature; DPH dye
[4] = Water-solubility of detergents; assay type: physicochemical; conditions: in water
μ-opioid receptor (MOR) = μ-opioid receptor (MOR) (Mus musculus, UniProt P42866); experiment: MOR stability assay; assay type: biochemical; conditions: 0.1 wt% detergent, 3-day incubation at room temperature
Sequence of μ-opioid receptor (MOR) (P42866 whole entry): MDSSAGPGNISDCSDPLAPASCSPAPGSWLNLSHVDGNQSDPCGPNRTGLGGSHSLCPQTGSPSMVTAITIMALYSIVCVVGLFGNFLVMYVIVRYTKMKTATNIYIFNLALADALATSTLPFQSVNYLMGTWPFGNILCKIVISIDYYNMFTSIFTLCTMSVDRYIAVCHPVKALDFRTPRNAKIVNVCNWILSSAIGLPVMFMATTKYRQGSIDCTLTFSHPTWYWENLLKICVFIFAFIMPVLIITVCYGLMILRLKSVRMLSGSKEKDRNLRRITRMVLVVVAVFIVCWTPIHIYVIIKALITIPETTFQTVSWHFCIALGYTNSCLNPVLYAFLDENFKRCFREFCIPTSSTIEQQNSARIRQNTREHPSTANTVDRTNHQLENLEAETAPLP

MelBSt [5] = biological target: T2, MelBSt (Salmonella typhimurium, UniProt P30878); conditions: 1.5 wt% detergent, further 90 min at 55 °C
T2 sequence (P30878 whole entry): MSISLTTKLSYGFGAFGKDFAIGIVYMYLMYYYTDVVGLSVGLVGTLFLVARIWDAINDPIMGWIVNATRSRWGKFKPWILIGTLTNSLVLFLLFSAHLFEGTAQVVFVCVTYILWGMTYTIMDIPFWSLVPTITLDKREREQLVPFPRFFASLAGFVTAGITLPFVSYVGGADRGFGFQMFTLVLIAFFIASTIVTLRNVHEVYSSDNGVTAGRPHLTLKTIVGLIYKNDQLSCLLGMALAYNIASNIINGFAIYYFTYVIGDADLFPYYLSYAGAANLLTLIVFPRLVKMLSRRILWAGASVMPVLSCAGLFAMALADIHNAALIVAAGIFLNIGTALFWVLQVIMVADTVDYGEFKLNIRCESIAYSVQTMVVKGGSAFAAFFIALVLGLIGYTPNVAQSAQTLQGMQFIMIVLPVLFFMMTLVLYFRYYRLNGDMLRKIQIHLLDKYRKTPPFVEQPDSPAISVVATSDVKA

LeuT = LeuT stability assay; assay type: biochemical, Aquifex aeolicus; conditions: detergent at CMC + 0.04 wt%, 13-day incubation, room temperature
MelBSt [6] = biological target: T2, MelBSt; assay type: biochemical; conditions: MelBSt extracted with 1.0 wt% detergent
MelBSt [7] = biological target: T2, MelBSt; conditions: read-out: Apparent Kd, in the presence of Na+; cited from earlier work
MelBEc [8] = biological target: T1, MelBEc; conditions: read-out: Apparent Kd, in the presence of Na+; cited from earlier work

T1 sequence (P02921 whole entry): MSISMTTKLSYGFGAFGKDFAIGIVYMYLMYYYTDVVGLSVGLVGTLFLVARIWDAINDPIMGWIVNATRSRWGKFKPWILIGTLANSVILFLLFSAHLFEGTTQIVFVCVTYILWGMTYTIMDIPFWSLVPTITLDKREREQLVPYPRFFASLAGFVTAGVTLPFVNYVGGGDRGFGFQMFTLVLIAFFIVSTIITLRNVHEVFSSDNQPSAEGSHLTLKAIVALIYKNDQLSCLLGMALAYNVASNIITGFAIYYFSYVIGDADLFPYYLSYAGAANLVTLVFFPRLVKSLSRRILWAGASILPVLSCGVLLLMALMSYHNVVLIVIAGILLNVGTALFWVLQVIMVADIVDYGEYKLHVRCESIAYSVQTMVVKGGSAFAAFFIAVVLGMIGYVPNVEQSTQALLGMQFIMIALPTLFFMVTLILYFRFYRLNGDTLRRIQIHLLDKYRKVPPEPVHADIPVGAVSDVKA

| SMILES | Dh (hydrodynamic diameter of aggregates) [1] [nm] | fluorescence response to D2G and melibiose (MelB function) (MelBEc [2]) | CAC (critical aggregation concentration) [3] [µM] | Solubility (water-solubility) [4] [wt%] | MOR long-term stability ([3H]-DPN binding ability) (μ-opioid receptor (MOR)) | soluble MelBSt after incubation (MelBSt [5]) | LeuT long-term stability ([3H]-Leu binding ability) (LeuT) | fluorescence response to D2G and melibiose (MelB function) (MelBSt [6]) | Kd (MelBSt [7]) [µM] | Kd (MelBEc [8]) [µM] |
| --- | --- | --- | --- | --- | --- | --- | --- | --- | --- | --- |
| CCCCCCCCCCCCO[C@@H]1O[C@H](CO)[C@@H](O[C@H]2O[C@H](CO)[C@@H](O)[C@H](O)[C@H]2O)[C@H](O)[C@H]1O [DDM, n-dodecyl-β-D-maltoside] | 6.8 ± 0.6 | no response was observed | 170 | ~10 | complete loss in ligand binding ability after a 1-day incubation | little DDM-solubilized MelBSt detectable | steady decrease in the substrate binding ability over time | responsive to the successive addition of D^2G and melibiose |  |  |
| OC[C@H]1O[C@H](OCC2O[C@@H](O)[C@H](O)[C@@H](O)[C@@H]2O)[C@H](O)[C@@H](O)[C@H]1O (stereo partly drawn) [melibiose] |  |  |  |  |  |  |  |  | 1070 | 490 |
| CN(C)c1cccc2c(S(=O)(=O)NCCS[C@@H]3O[C@H](CO)[C@H](O)[C@H](O)[C@H]3O)cccc12 [D^2G, 2′-(N-Dansyl)aminoalkyl-1-thio-β-D-galactopyranoside] |  |  |  |  |  |  |  |  | 10.3 | 3.1 |
